Patent publication US4927922A, “7β-(substituted)amino-3-substituted cephalosporanic acids and esters” (American Cyanamid Company, priority 1988, dated 1990)
In brackets after ≈: the same amount, converted by molar mass. Several values for one entry are separate records, joined by “and”; a condition that tells them apart may be missing. Identical values can stand only once. Like-named read-outs stand apart in the source and are kept apart here.

Experiments:
Test in all cases: in vitro agar dilution test (MIC)
Type in all cases: cell-based
Salmonella SSC 79-57 = conditions: SSC7957, Mueller-Hinton agar
Description: (§1) The compounds of the present invention are active antibacterial agents as established in the in vitro agar dilution test using Mueller-Hinton agar. The test compounds were dissolved in a mixture of dimethyl sulfoxide and aqueous sodium bicarbonate and applied as 1 ml of drug solution plus 9 ml of agar per plate. The innoculum was a 5 hour TSB shake culture diluted to 10^-2 with Mueller-Hinton broth and applied to the plates with a Steers' Replicator.
(§2) The results of this test on representative compounds of this invention (identified by Example Number) against a variety of microorganisms appear in Tables I and II in terms of minimal inhibitory concentration (MIC) in mcg/ml together with Cefotaxime, Cephalothin and Ampicillin as positive controls.

[1] = system: Enterobacter aerogenes STFD 79-14; conditions: Klebsiella aerogenes, STFD7914, Enterobacter aerogenes STFD 79-14; Mueller-Hinton agar
Description: as §1, §2

Enterococcus OSU 75-1 = conditions: Mueller-Hinton agar
Description: as §1, §2

[2] = system: Staphylococcus FU 79-19-2β^+; conditions: Mueller-Hinton agar
Description: as §1, §2

Proteus rettgheri N 76-1 = conditions: Mueller-Hinton agar
Description: as §1, §2

Pseudomonas SSC 78-13 = conditions: SSC7813, Mueller-Hinton agar
Description: as §1, §2

Proteus rettgheri K 77-6 = conditions: Mueller-Hinton agar
Description: as §1, §2

[3] = system: Providencia stuarti SSC 80-78; conditions: SSC8078, Mueller-Hinton agar
Description: as §1, §2

Pseudomonas 12-4-4 = conditions: Mueller-Hinton agar
Description: as §1, §2

[4] = system: Pseudomonas aeruginosa ATCC 27853; conditions: Mueller-Hinton agar
Description: as §1, §2

Staphylococcus Smith = conditions: Mueller-Hinton agar, Table I
Description: as §1, §2

[5] = system: Providencia stuarti K 81-29; conditions: K8129, Mueller-Hinton agar
Description: as §1, §2

Acinetobacter STFD 79-17 = conditions: Mueller-Hinton agar
Description: as §1, §2

Serratia TUL 78-15 = conditions: TUL7815, Serratia TUL 78-15, Mueller-Hinton agar
Description: as §1, §2

Klebsiella STFD 79-6 = conditions: STFD796, Klebsiella STFD 79-6, Mueller-Hinton agar
Description: as §1, §2

Klebsiella SSC 78-1 = conditions: SSC781, Klebsiella SSC 78-1, Mueller-Hinton agar
Description: as §1, §2

Proteus morganii K 79-25 = conditions: Morganella morganii, K7925, Proteus morganii K 79-25; Mueller-Hinton agar
Description: as §1, §2

[6] = system: Escherichia coli STFD 79-20; conditions: STFD7920, Escherichia coli STFD 79-20, Mueller-Hinton agar
Description: as §1, §2

Escherichia coli 311 = conditions: Escherichia coli, 311, Escherichia coli 311; Mueller-Hinton agar
Description: as §1, §2

Enterococcus SM 77-15 = conditions: SM7715, Enterococcus SM 77-15, Mueller-Hinton agar
Description: as §1, §2

[7] = system: Staphylococcus SSC 79-18β^-; conditions: Mueller-Hinton agar
Description: as §1, §2

[8] = system: Enterobacter cloacae K 79-16; conditions: K7916, Enterobacter cloacae K 79-16, Mueller-Hinton agar
Description: as §1, §2

Acinetobacter K 77-1 = conditions: K771, Acinetobacter K 77-1, Mueller-Hinton agar
Description: as §1, §2

[9] = system: Salmonella ariz. QHC 77-3; conditions: Mueller-Hinton agar
Description: as §1, §2

[10] = system: Escherichia coli ESS 22-31; conditions: ESS2231, Mueller-Hinton agar
Description: as §1, §2

[11] = system: Staphylococcus ATCC 25923; conditions: ATCC25923, Staphylococcus ATCC 25923, Mueller-Hinton agar, Table I
Description: as §1, §2

Klebsiella pneumoniae AD = conditions: Mueller-Hinton agar, Table I
Description: as §1, §2

[12] = system: Escherichia coli ATCC 25922; conditions: ATCC25922, Escherichia coli ATCC 25922, Mueller-Hinton agar, Table I
Description: as §1, §2

Serratia QHC 77-2 = conditions: QHC772, Serratia QHC 77-2, Mueller-Hinton agar
Description: as §1, §2

[13] = system: Micrococcus lutea PCI 1001; conditions: PCI1001, Micrococcus lutea PCI 1001, Mueller-Hinton agar
Description: as §1, §2

[14] = Enterococcus, OSU751, Enterococcus OSU 75-1, read-out: MIC
[15] = Pseudomonas, 1244, Pseudomonas 12-4-4, read-out: MIC
[16] = Pseudomonas aeruginosa, ATCC27853, Pseudomonas aeruginosa ATCC 27853, read-out: MIC
[17] = Acinetobacter, STFD7917, Acinetobacter STFD 79-17, read-out: MIC

Structure (SMILES)	MIC (Salmonella SSC 79-57)	MIC [1]	MIC (Enterococcus OSU 75-1; [14])	MIC ([2]; Staphylococcus, read-out: MIC)	MIC (Proteus rettgheri N 76-1)	MIC (Pseudomonas SSC 78-13)	MIC (Pseudomonas 12-4-4; [15])	MIC [4, 16]	MIC (Staphylococcus Smith; Staphylococcus, read-out: MIC)	MIC (Acinetobacter STFD 79-17; [17])	MIC (Serratia TUL 78-15)	MIC (Klebsiella STFD 79-6)	MIC (Klebsiella SSC 78-1)	MIC (Proteus morganii K 79-25)	MIC [6]	MIC (Escherichia coli 311)	MIC (Enterococcus SM 77-15)	MIC [7]	MIC [8]	MIC (Acinetobacter K 77-1)	further results
CO/N=C(\C(=O)N[C@@H]1C(=O)N2C(C(=O)O)=C(COC(C)=O)CS[C@H]12)c1csc(N)n1 [Cefotaxime, 3-[(acetyloxy)methyl]-7β-[[(2-amino-4-thiazolyl)(methoxyimino)acetyl]amino]-8-oxo-5-thia-1-azabicyclo[4.2.0]oct-2-ene-2-carboxylic acid, reference compound]	0.25 µg/mL (≈ 0.549 µM)	0.03 µg/mL (≈ 0.0659 µM)	128 µg/mL (≈ 281 µM)	4 µg/mL (≈ 8.78 µM)	≤ 0.015 µg/mL	32 µg/mL (≈ 70.3 µM)	16 µg/mL (≈ 35.1 µM)	16 µg/mL (≈ 35.1 µM)	1 µg/mL (≈ 2.2 µM)	8 µg/mL (≈ 17.6 µM)											MIC (Enterococcus OSU 75-1; Enterococcus OSU 75-1): 64 µg/mL and > 128 µg/mL; MIC [2]: 8 µg/mL (≈ 17.6 µM); MIC (Proteus rettgheri K 77-6): ≤ 0.06 µg/mL; MIC [3]: ≤ 0.06 µg/mL; MIC (Pseudomonas 12-4-4; Pseudomonas 12-4-4): 8 µg/mL (≈ 17.6 µM); MIC ([4]; Pseudomonas aeruginosa ATCC 27853): 32 µg/mL (≈ 70.3 µM); MIC (Staphylococcus Smith): 2 µg/mL (≈ 4.39 µM); MIC [5]: 0.25 µg/mL (≈ 0.549 µM); MIC (Acinetobacter STFD 79-17; Acinetobacter STFD 79-17): 16 µg/mL (≈ 35.1 µM)
CO/N=C(\C(=O)N[C@@H]1C(=O)N2C(C(=O)O)=C(CSc3nnsc3-c3ccccc3)CS[C@H]12)c1csc(N)n1 [Example 1, (Z)-7-[[(2-Amino-4-thiazolyl)(methoxyimino)acetyl]amino]-8-oxo-3-[[(5-phenyl-1,2,3-thiadiazol-4-yl)thio]mehtyl]-5-thia-1-azabicyclo[4.2.0]oct-2-ene-2-carboxylic acid]	4 µg/mL (≈ 6.78 µM)	1 µg/mL (≈ 1.7 µM)	128 µg/mL (≈ 217 µM)	4 µg/mL (≈ 6.78 µM)	≤ 0.015 µg/mL	128 µg/mL (≈ 217 µM)	> 128 µg/mL	128 µg/mL (≈ 217 µM)	1 µg/mL (≈ 1.7 µM)	16 µg/mL (≈ 27.1 µM)	8 µg/mL (≈ 13.6 µM)	0.5 µg/mL (≈ 0.848 µM)	0.5 µg/mL (≈ 0.848 µM)	0.5 µg/mL (≈ 0.848 µM)	0.5 µg/mL (≈ 0.848 µM)	0.5 µg/mL (≈ 0.848 µM)	64 µg/mL (≈ 109 µM)	1 µg/mL (≈ 1.7 µM)	4 µg/mL (≈ 6.78 µM)	4 µg/mL (≈ 6.78 µM)	MIC [9]: 1 µg/mL (≈ 1.7 µM); MIC [10]: ≤ 0.015 µg/mL; MIC [11]: 2 µg/mL (≈ 3.39 µM); MIC (Klebsiella pneumoniae AD): 0.25 µg/mL (≈ 0.424 µM); MIC [12]: 0.12 µg/mL (≈ 0.203 µM); MIC (Serratia QHC 77-2): 8 µg/mL (≈ 13.6 µM)
CO/N=C(\C(=O)N[C@@H]1C(=O)N2C(C(=O)O)=C(CSc3nnsc3-c3ccc(C(C)(C)C)cc3)CS[C@H]12)c1csc(N)n1 [Example 2, (Z)-7-[[(2-Amino-4-thiazolyl)(methoxyimino)acetyl]amino]-3-[[[5-[4-(1,1-dimethylethyl)phenyl]-1,2,3-thiadiazol-4-yl]thio]methyl]-8-oxo-5-thia-1-azabicyclo-[4.2.0]oct-2-ene-2-carboxylic acid]	4 µg/mL (≈ 6.19 µM)	0.5 µg/mL (≈ 0.774 µM)	256 µg/mL (≈ 396 µM)	32 µg/mL (≈ 49.5 µM)	≤ 0.03 µg/mL	> 256 µg/mL	> 256 µg/mL	> 256 µg/mL	8 µg/mL (≈ 12.4 µM)	128 µg/mL (≈ 198 µM)	32 µg/mL (≈ 49.5 µM)	0.06 µg/mL (≈ 0.0929 µM)	0.06 µg/mL (≈ 0.0929 µM)	0.5 µg/mL (≈ 0.774 µM)	0.25 µg/mL (≈ 0.387 µM)	0.25 µg/mL (≈ 0.387 µM)	256 µg/mL (≈ 396 µM)	8 µg/mL (≈ 12.4 µM)	2 µg/mL (≈ 3.1 µM)	16 µg/mL (≈ 24.8 µM)	MIC [13]: 0.06 µg/mL (≈ 0.0929 µM); MIC [9]: 1 µg/mL (≈ 1.55 µM); MIC [10]: ≤ 0.03 µg/mL; MIC [11]: 16 µg/mL (≈ 24.8 µM); MIC (Klebsiella pneumoniae AD): 0.06 µg/mL (≈ 0.0929 µM); MIC [12]: 0.06 µg/mL (≈ 0.0929 µM); MIC (Serratia QHC 77-2): 32 µg/mL (≈ 49.5 µM)
CO/N=C(\C(=O)N[C@@H]1C(=O)N2C(C(=O)O)=C(CSc3nnsc3C(C)(C)C)CS[C@H]12)c1csc(N)n1 [Example 6, (Z)-7-[[(2-Amino-4-thiazolyl)(methoxyimino)acetyl]amino]-3-[[[5-(1,1-dimethylethyl)-1,2,3-thiadiazol-4-yl]thio]methyl]-8-oxo-5-thia-1-azabicyclo[4.2.0]oct-2-ene-2-carboxylic acid]	8 µg/mL (≈ 14 µM)	4 µg/mL (≈ 7.02 µM)	256 µg/mL (≈ 449 µM)	16 µg/mL (≈ 28.1 µM)		64 µg/mL (≈ 112 µM)	64 µg/mL (≈ 112 µM)	128 µg/mL (≈ 225 µM)	2 µg/mL (≈ 3.51 µM)	32 µg/mL (≈ 56.2 µM)	8 µg/mL (≈ 14 µM)	2 µg/mL (≈ 3.51 µM)	1 µg/mL (≈ 1.76 µM)	16 µg/mL (≈ 28.1 µM)	0.5 µg/mL (≈ 0.878 µM)	0.5 µg/mL (≈ 0.878 µM)	128 µg/mL (≈ 225 µM)	1 µg/mL (≈ 1.76 µM)	1 µg/mL (≈ 1.76 µM)	32 µg/mL (≈ 56.2 µM)	MIC [13]: 0.25 µg/mL (≈ 0.439 µM); MIC (Proteus rettgheri K 77-6): ≤ 0.12 µg/mL; MIC [3]: 5 µg/mL (≈ 8.78 µM); MIC [5]: 1 µg/mL (≈ 1.76 µM); MIC [9]: 2 µg/mL (≈ 3.51 µM); MIC [10]: 0.5 µg/mL (≈ 0.878 µM); MIC [11]: 4 µg/mL (≈ 7.02 µM); MIC (Klebsiella pneumoniae AD): 0.25 µg/mL (≈ 0.439 µM); MIC [12]: 2 µg/mL (≈ 3.51 µM); MIC (Serratia QHC 77-2): 8 µg/mL (≈ 14 µM)
